The record followed here is PMC11576293, “New series of 4,6-diaryl pyrimidines: facile synthesis and antiproliferative activity as dual EGFR/VEGFR-2 inhibitors” (Frontiers in Chemistry, 2024).

The inhibition is the relative decrease from the control value, in per cent.

Each structure is given as a SMILES string. Where only a bound is given, the exact number is not on record here.

The test system of the first experiment is M14. The experiment can be described thus: NCI-60 single-dose screen. In kind it is cell-based. The note with it: Homo sapiens, single dose 10 µM, '-' = no inhibition, read-out: % Growth Inhibition. In a few lines: (§1)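 Compounds tested once at 10 μM across the NCI-60 panel of 60 human cancer cell lines spanning nine tumour types (leukemia, lung, colon, CNS, melanoma, ovarian, renal, prostate, breast), run by the NCI Developmental Therapeutics Program.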
`COc1ccc(-c2cc(-c3ccc(Cl)cc3)nc(SCc3ccccc3)n2)cc1OC` [Compound 28, 2-(Benzylthio)-4-(4-chlorophenyl)-6-(3,4-dimethoxyphenyl)pyrimidine]: the inhibition at 10 µM turned out to be 0.81%.

For a further experiment, the system named is UACC-257. The experiment can be described thus: NCI-60 single-dose screen. Format: cell-based. The note with it: Homo sapiens, single dose 10 µM, '-' = no inhibition, read-out: % Growth Inhibition. In a few lines:
as §1
With `COc1ccc(-c2cc(-c3ccc(Cl)cc3)nc(SCc3ccccc3)n2)cc1OC` [Compound 28, 2-(Benzylthio)-4-(4-chlorophenyl)-6-(3,4-dimethoxyphenyl)pyrimidine], the inhibition at 10 µM amounted to 15.3%.

Another experiment has as its system RPMI-8226. Description: NCI-60 single-dose screen. Format: cell-based. The following applies: Homo sapiens, single dose 10 µM, '-' = no inhibition, read-out: % Growth Inhibition. In a few lines:
as §1
With `COc1ccc(-c2cc(-c3ccc(Cl)cc3)nc(SCc3ccccc3)n2)cc1OC` [Compound 28, 2-(Benzylthio)-4-(4-chlorophenyl)-6-(3,4-dimethoxyphenyl)pyrimidine], the inhibition at 10 µM turned out to be 24.3%.

A further experiment has as its system NCI/ADR-RES. The experiment can be described thus: NCI-60 single-dose screen. The note with it: Homo sapiens, single dose 10 µM, '-' = no inhibition, read-out: % Growth Inhibition. Format: cell-based. Put shortly: as §1
Consider `COc1ccc(-c2cc(-c3ccc(Cl)cc3)nc(SCc3ccccc3)n2)cc1OC` [Compound 28, 2-(Benzylthio)-4-(4-chlorophenyl)-6-(3,4-dimethoxyphenyl)pyrimidine], for which the inhibition at 10 µM came out at 14.3%.

Another experiment concerns OVCAR-5. Description: NCI-60 single-dose screen. In kind it is cell-based. The following applies: Homo sapiens, single dose 10 µM, '-' = no inhibition, read-out: % Growth Inhibition. In a few lines:
as §1
As for `COc1ccc(-c2cc(-c3ccc(Cl)cc3)nc(SCc3ccccc3)n2)cc1OC` [Compound 28, 2-(Benzylthio)-4-(4-chlorophenyl)-6-(3,4-dimethoxyphenyl)pyrimidine], the inhibition at 10 µM was found to be 6.33%.

In another experiment the test system is OVCAR-8. Description: NCI-60 single-dose screen. Format: cell-based. The note with it: Homo sapiens, single dose 10 µM, '-' = no inhibition, read-out: % Growth Inhibition. In a few lines:
as §1
Regarding `COc1ccc(-c2cc(-c3ccc(Cl)cc3)nc(SCc3ccccc3)n2)cc1OC` [Compound 28, 2-(Benzylthio)-4-(4-chlorophenyl)-6-(3,4-dimethoxyphenyl)pyrimidine], the inhibition at 10 µM is 8.97%.

For another experiment, the system named is EKVX. Description: NCI-60 single-dose screen. The following applies: Homo sapiens, single dose 10 µM, '-' = no inhibition, read-out: % Growth Inhibition. In kind it is cell-based. Put shortly: as §1
As for `COc1ccc(-c2cc(-c3ccc(Cl)cc3)nc(SCc3ccccc3)n2)cc1OC` [Compound 28, 2-(Benzylthio)-4-(4-chlorophenyl)-6-(3,4-dimethoxyphenyl)pyrimidine], the inhibition at 10 µM was 22.2%.

In the next experiment the test system is SNB-19. The experiment can be described thus: NCI-60 single-dose screen. In kind it is cell-based. The note with it: Homo sapiens, single dose 10 µM, '-' = no inhibition, read-out: % Growth Inhibition. In a few lines:
as §1
For `COc1ccc(-c2cc(-c3ccc(Cl)cc3)nc(SCc3ccccc3)n2)cc1OC` [Compound 28, 2-(Benzylthio)-4-(4-chlorophenyl)-6-(3,4-dimethoxyphenyl)pyrimidine], the inhibition at 10 µM turned out to be 4.06%.

In the next experiment the test system is A549/ATCC. The experiment can be described thus: NCI-60 single-dose screen. The following applies: Homo sapiens, single dose 10 µM, '-' = no inhibition, read-out: % Growth Inhibition. In kind it is cell-based. In a few lines:
as §1
Take `COc1ccc(-c2cc(-c3ccc(Cl)cc3)nc(SCc3ccccc3)n2)cc1OC` [Compound 28, 2-(Benzylthio)-4-(4-chlorophenyl)-6-(3,4-dimethoxyphenyl)pyrimidine]: the inhibition at 10 µM is 18.9%.

A further experiment concerns SR. The experiment can be described thus: NCI-60 single-dose screen. In kind it is cell-based. The following applies: Homo sapiens, single dose 10 µM, '-' = no inhibition, read-out: % Growth Inhibition. Put shortly:
as §1
`COc1ccc(-c2cc(-c3ccc(Cl)cc3)nc(SCc3ccccc3)n2)cc1OC` [Compound 28, 2-(Benzylthio)-4-(4-chlorophenyl)-6-(3,4-dimethoxyphenyl)pyrimidine]: the inhibition at 10 µM worked out at 39.4%.

For the next experiment, the system named is NCI-H322M. The experiment can be described thus: NCI-60 single-dose screen. The note with it: Homo sapiens, single dose 10 µM, '-' = no inhibition, read-out: % Growth Inhibition. In kind it is cell-based. In a few lines:
as §1
In the case of `COc1ccc(-c2cc(-c3ccc(Cl)cc3)nc(SCc3ccccc3)n2)cc1OC` [Compound 28, 2-(Benzylthio)-4-(4-chlorophenyl)-6-(3,4-dimethoxyphenyl)pyrimidine], the inhibition at 10 µM is below 0%.

Another experiment deals with SNB-75. The experiment can be described thus: NCI-60 single-dose screen. In kind it is cell-based. The following applies: Homo sapiens, single dose 10 µM, '-' = no inhibition, read-out: % Growth Inhibition. In a few lines:
as §1
As to `COc1ccc(-c2cc(-c3ccc(Cl)cc3)nc(SCc3ccccc3)n2)cc1OC` [Compound 28, 2-(Benzylthio)-4-(4-chlorophenyl)-6-(3,4-dimethoxyphenyl)pyrimidine], the inhibition at 10 µM was below 0%.

For another experiment, the system named is IGROV1. The experiment can be described thus: NCI-60 single-dose screen. Format: cell-based. The note with it: Homo sapiens, IGROV-1, single dose 10 µM, '-' = no inhibition, read-out: % Growth Inhibition. In a few lines:
as §1
As to `COc1ccc(-c2cc(-c3ccc(Cl)cc3)nc(SCc3ccccc3)n2)cc1OC` [Compound 28, 2-(Benzylthio)-4-(4-chlorophenyl)-6-(3,4-dimethoxyphenyl)pyrimidine], the inhibition at 10 µM was below 0%.

Another experiment deals with HCT-15. The experiment can be described thus: NCI-60 single-dose screen. Format: cell-based. The note with it: Homo sapiens, single dose 10 µM, '-' = no inhibition, read-out: % Growth Inhibition. Put shortly: as §1
For the compound `COc1ccc(-c2cc(-c3ccc(Cl)cc3)nc(SCc3ccccc3)n2)cc1OC` [Compound 28, 2-(Benzylthio)-4-(4-chlorophenyl)-6-(3,4-dimethoxyphenyl)pyrimidine], the inhibition at 10 µM came to 27.6%.

For a further experiment, the system named is HL-60(TB). Description: NCI-60 single-dose screen. Format: cell-based. The following applies: Homo sapiens, single dose 10 µM, '-' = no inhibition, read-out: % Growth Inhibition.
Regarding `COc1ccc(-c2cc(-c3ccc(Cl)cc3)nc(SCc3ccccc3)n2)cc1OC` [Compound 28, 2-(Benzylthio)-4-(4-chlorophenyl)-6-(3,4-dimethoxyphenyl)pyrimidine], the inhibition at 10 µM is 21.4%.

A further experiment deals with NCI-H23. Description: NCI-60 single-dose screen. In kind it is cell-based. The note with it: Homo sapiens, single dose 10 µM, '-' = no inhibition, read-out: % Growth Inhibition. Put shortly: as §1
`COc1ccc(-c2cc(-c3ccc(Cl)cc3)nc(SCc3ccccc3)n2)cc1OC` [Compound 28, 2-(Benzylthio)-4-(4-chlorophenyl)-6-(3,4-dimethoxyphenyl)pyrimidine]: the inhibition at 10 µM was determined as 2.2%.

A further experiment deals with MDA-MB231/ATCC. The experiment can be described thus: NCI-60 single-dose screen. The note with it: Homo sapiens, MDA-MB-231, single dose 10 µM, '-' = no inhibition, read-out: % Growth Inhibition. In kind it is cell-based. Put shortly:
as §1
On to `COc1ccc(-c2cc(-c3ccc(Cl)cc3)nc(SCc3ccccc3)n2)cc1OC` [Compound 28, 2-(Benzylthio)-4-(4-chlorophenyl)-6-(3,4-dimethoxyphenyl)pyrimidine], for which the inhibition at 10 µM worked out at 23%.

For the next experiment, the system named is PC-3. Description: NCI-60 single-dose screen. In kind it is cell-based. The note with it: Homo sapiens, single dose 10 µM, '-' = no inhibition, read-out: % Growth Inhibition. Put shortly:
as §1
On to `COc1ccc(-c2cc(-c3ccc(Cl)cc3)nc(SCc3ccccc3)n2)cc1OC` [Compound 28, 2-(Benzylthio)-4-(4-chlorophenyl)-6-(3,4-dimethoxyphenyl)pyrimidine], for which the inhibition at 10 µM worked out at 19%.

The subject of the next experiment is SK-MEL-2. The experiment can be described thus: NCI-60 single-dose screen. Format: cell-based. The following applies: Homo sapiens, single dose 10 µM, '-' = no inhibition, read-out: % Growth Inhibition. Put shortly: as §1
As to `COc1ccc(-c2cc(-c3ccc(Cl)cc3)nc(SCc3ccccc3)n2)cc1OC` [Compound 28, 2-(Benzylthio)-4-(4-chlorophenyl)-6-(3,4-dimethoxyphenyl)pyrimidine], the inhibition at 10 µM turned out to be 12%.

In a further experiment the test system is 786-0. Description: NCI-60 single-dose screen. In kind it is cell-based. The note with it: Homo sapiens, single dose 10 µM, '-' = no inhibition, read-out: % Growth Inhibition. In a few lines: as §1
On to `COc1ccc(-c2cc(-c3ccc(Cl)cc3)nc(SCc3ccccc3)n2)cc1OC` [Compound 28, 2-(Benzylthio)-4-(4-chlorophenyl)-6-(3,4-dimethoxyphenyl)pyrimidine], for which the inhibition at 10 µM was found to be 7.96%.

A further experiment has as its system UACC-62. Description: NCI-60 single-dose screen. The following applies: Homo sapiens, single dose 10 µM, '-' = no inhibition, read-out: % Growth Inhibition. Format: cell-based. Put shortly: as §1
In the case of `COc1ccc(-c2cc(-c3ccc(Cl)cc3)nc(SCc3ccccc3)n2)cc1OC` [Compound 28, 2-(Benzylthio)-4-(4-chlorophenyl)-6-(3,4-dimethoxyphenyl)pyrimidine], the inhibition at 10 µM was below 0%.

In another experiment the test system is SK-OV-3. Description: NCI-60 single-dose screen. In kind it is cell-based. The note with it: Homo sapiens, single dose 10 µM, '-' = no inhibition, read-out: % Growth Inhibition. In a few lines: as §1
Turning to `COc1ccc(-c2cc(-c3ccc(Cl)cc3)nc(SCc3ccccc3)n2)cc1OC` [Compound 28, 2-(Benzylthio)-4-(4-chlorophenyl)-6-(3,4-dimethoxyphenyl)pyrimidine], the inhibition at 10 µM was found to be 2.92%.

Another experiment relates to UO-31. The experiment can be described thus: NCI-60 single-dose screen. Format: cell-based. The following applies: Homo sapiens, single dose 10 µM, '-' = no inhibition, read-out: % Growth Inhibition. In a few lines: as §1
On to `COc1ccc(-c2cc(-c3ccc(Cl)cc3)nc(SCc3ccccc3)n2)cc1OC` [Compound 28, 2-(Benzylthio)-4-(4-chlorophenyl)-6-(3,4-dimethoxyphenyl)pyrimidine], for which the inhibition at 10 µM was 24.8%.
